Tested on: S. aureus ATCC 6538
Test: quantitative suspension assay of mono-substances
Format: cell-based, Staphylococcus aureus
Procedure: A stock solution was prepared by adding 0.1 ml methanol to 10.48 mg of hydroxytyrosol. After dissolving of the compound, the solution was quantitatively transferred into 4.9 ml water for injection (WFI), effective concentration of hydroxytyrosol: 2.0 mg/ml.
Using the stock solution, five (5) concentrations of hydroxytyrosol in a geometric series of 2 mg hydroxytyrosol/ml to 0.125 mg hydroxytyrosol/ml were tested in a quantitative suspension assay.
2 ml of the stock solution and the dilutions (V1 to V4), respectively, and a methanol-solution of 2% as a positive control were inoculated with 0.1 ml of a test suspension of S. aureus ATCC 6538, adjusted to about 2.0×10^5 CFU/0.1 ml, resulting in about 100,000 CFU/ml in the individual assays.
Samples (0.1 ml) were then taken at t 0, 12, 30, and 60 minutes as well as t 24 48, and 72 hours after inoculation and culturing at between 20-25° C., and were diluted with 0.9 ml of 0.9% NaCl solution. The samples were plated on blood agar plates, and incubated up to 5 days at between 30-35° C.
A stock solution was prepared at a concentration of 2 mg/ml of oleocanthal. The compound was dissolved by in ethanol (99.8%) and WFI was added.
Using the stock solution, concentrations of oleocanthal in a geometric series of 1 mg oleocanthal/ml to 0.125 mg oleocanthal/ml were tested in a quantitative suspension assay.
2 ml of the stock solution and the dilutions (V1 to V4), respectively, and a ethanol-solution of 2.85% as a positive control were inoculated with 0.055 ml of a test suspension of S. aureus ATCC 6538, adjusted to about 3.6×10^5 CFU/0.1 ml, resulting in about 99,000 CFU/ml in the individual assays.
A stock solution was prepared at a concentration of 1 mg/ml of oleacin. The compound was dissolved by in ethanol (99.8%) and WFI was added.
Using the stock solution, concentrations of oleacin at 0.25 mg oleacin/ml and 0.125 mg oleacin/ml were tested in a quantitative suspension assay.
2 ml of the stock solution and the dilutions (V1 and V2), respectively, and a ethanol-solution of 0.44% as a positive control were inoculated with 0.055 ml of a test suspension of S. aureus ATCC 6538, adjusted to about 3.5×10^5 CFU/0.1 ml, resulting in about 99,000 CFU/ml in the individual assays.
A stock solution was prepared by adding 0.1 ml chloroform to 25 mg of uvaol. After dissolving of the compound, the solution was quantitatively transferred into 12.4 ml water for injection (WFI), effective concentration of uvaol: 2.0 mg/ml.
Using the stock solution, five (5) concentrations of uvaol in a geometric series of 2 mg uvaol/ml to 0.125 mg uvaol/ml were tested in a quantitative suspension assay.
2 ml of the stock solution and the dilutions (V1 to V4), respectively, and a chloroform-solution of 0.8% as a positive control were inoculated with 0.1 ml of a test suspension of S. aureus ATCC 6538, adjusted to about 2.0×10^5 CFU/0.1 ml, resulting in about 100,000 CFU/ml in the individual assays.
A stock solution was prepared by adding 0.1 ml chloroform to 10.45 mg of erythrodiol. After dissolving of the compound, the solution was quantitatively transferred into 4.9 ml water for injection (WFI), effective concentration of erythrodiol: 2.0 mg/ml.
2 ml of the stock solution and the dilutions (V1 to V4), respectively, and a chloroform-solution of 2% as a positive control were inoculated with 0.1 ml of a test suspension of S. aureus ATCC 6538, adjusted to about 3.6×10^5 CFU/0.1 ml, resulting in about 100.000 CFU/ml in the individual assays.

## C[C@H]1[C@H](C)CC[C@]2(CO)CC[C@]3(C)C(=CC[C@@H]4[C@@]5(C)CC[C@H](O)C(C)(C)[C@@H]5CC[C@]43C)[C@H]12 [uvaol]
0.125 Uva/ml, t 0 min, initial cell load 2.0 × 10^5 CFU/ml
  Number of CFUs: 6.3 × 10^4 CFU/ml
0.125 Uva/ml, t 12 min, initial cell load 2.0 × 10^5 CFU/ml
  Number of CFUs: 5.7 × 10^4 CFU/ml
0.125 Uva/ml, t 30 min, initial cell load 2.0 × 10^5 CFU/ml
  Number of CFUs: 7.6 × 10^4 CFU/ml
0.125 Uva/ml, t 60 min, initial cell load 2.0 × 10^5 CFU/ml
  Number of CFUs: 6.6 × 10^4 CFU/ml
0.125 Uva/ml, t 24 h, initial cell load 2.0 × 10^5 CFU/ml
  Number of CFUs: 4.7 × 10^3 CFU/ml
0.125 Uva/ml, t 48 h, initial cell load 2.0 × 10^5 CFU/ml
  Number of CFUs: 4.2 × 10^3 CFU/ml
0.125 Uva/ml, t 72 h, initial cell load 2.0 × 10^5 CFU/ml
  Number of CFUs: 8.2 × 10^2 CFU/ml
0.25 Uva/ml, t 0 min, initial cell load 2.0 × 10^5 CFU/ml
  Number of CFUs: 5.3 × 10^4 CFU/ml
0.25 Uva/ml, t 12 min, initial cell load 2.0 × 10^5 CFU/ml
  Number of CFUs: 8.1 × 10^4 CFU/ml
0.25 Uva/ml, t 30 min, initial cell load 2.0 × 10^5 CFU/ml
  Number of CFUs: 5.3 × 10^4 CFU/ml
0.25 Uva/ml, t 60 min, initial cell load 2.0 × 10^5 CFU/ml
  Number of CFUs: 5.7 × 10^4 CFU/ml
0.25 Uva/ml, t 24 h, initial cell load 2.0 × 10^5 CFU/ml
  Number of CFUs: <100 CFU/ml
0.25 Uva/ml, t 48 h, initial cell load 2.0 × 10^5 CFU/ml
  Number of CFUs: <100 CFU/ml
0.25 Uva/ml, t 72 h, initial cell load 2.0 × 10^5 CFU/ml
  Number of CFUs: <100 CFU/ml
0.5 Uva/ml, t 0 min, initial cell load 2.0 × 10^5 CFU/ml
  Number of CFUs: 7.0 × 10^4 CFU/ml
0.5 Uva/ml, t 12 min, initial cell load 2.0 × 10^5 CFU/ml
  Number of CFUs: 7.8 × 10^4 CFU/ml
0.5 Uva/ml, t 30 min, initial cell load 2.0 × 10^5 CFU/ml
  Number of CFUs: 7.6 × 10^4 CFU/ml
0.5 Uva/ml, t 60 min, initial cell load 2.0 × 10^5 CFU/ml
  Number of CFUs: 5.7 × 10^4 CFU/ml
0.5 Uva/ml, t 24 h, initial cell load 2.0 × 10^5 CFU/ml
  Number of CFUs: <100 CFU/ml
0.5 Uva/ml, t 48 h, initial cell load 2.0 × 10^5 CFU/ml
  Number of CFUs: <100 CFU/ml
0.5 Uva/ml, t 72 h, initial cell load 2.0 × 10^5 CFU/ml
  Number of CFUs: <100 CFU/ml
1.0 Uva/ml, t 0 min, initial cell load 2.0 × 10^5 CFU/ml
  Number of CFUs: 7.8 × 10^4 CFU/ml
1.0 Uva/ml, t 12 min, initial cell load 2.0 × 10^5 CFU/ml
  Number of CFUs: 7.8 × 10^4 CFU/ml
1.0 Uva/ml, t 30 min, initial cell load 2.0 × 10^5 CFU/ml
  Number of CFUs: 7.4 × 10^4 CFU/ml
1.0 Uva/ml, t 60 min, initial cell load 2.0 × 10^5 CFU/ml
  Number of CFUs: 5.9 × 10^4 CFU/ml
1.0 Uva/ml, t 24 h, initial cell load 2.0 × 10^5 CFU/ml
  Number of CFUs: <100 CFU/ml
1.0 Uva/ml, t 48 h, initial cell load 2.0 × 10^5 CFU/ml
  Number of CFUs: <100 CFU/ml
1.0 Uva/ml, t 72 h, initial cell load 2.0 × 10^5 CFU/ml
  Number of CFUs: <100 CFU/ml
2.0 Uva/ml, t 0 min, initial cell load 2.0 × 10^5 CFU/ml
  Number of CFUs: 7.2 × 10^4 CFU/ml
2.0 Uva/ml, t 12 min, initial cell load 2.0 × 10^5 CFU/ml
  Number of CFUs: 5.9 × 10^4 CFU/ml
2.0 Uva/ml, t 30 min, initial cell load 2.0 × 10^5 CFU/ml
  Number of CFUs: 7.0 × 10^4 CFU/ml
2.0 Uva/ml, t 60 min, initial cell load 2.0 × 10^5 CFU/ml
  Number of CFUs: 7.0 × 10^4 CFU/ml
2.0 Uva/ml, t 24 h, initial cell load 2.0 × 10^5 CFU/ml
  Number of CFUs: <100 CFU/ml
2.0 Uva/ml, t 48 h, initial cell load 2.0 × 10^5 CFU/ml
  Number of CFUs: <100 CFU/ml
2.0 Uva/ml, t 72 h, initial cell load 2.0 × 10^5 CFU/ml
  Number of CFUs: <100 CFU/ml

## C/C=C(/C=O)[C@@H](CC=O)CC(=O)OCCc1ccc(O)cc1 [oleocanthal]
0.125 Ole/ml, t 0 min, initial cell load 9.9 × 10^4 CFU/ml
  Number of CFUs: 2.0 × 10^4 CFU/ml
0.125 Ole/ml, t 12 min, initial cell load 9.9 × 10^4 CFU/ml
  Number of CFUs: 1.6 × 10^4 CFU/ml
0.125 Ole/ml, t 30 min, initial cell load 9.9 × 10^4 CFU/ml
  Number of CFUs: 1.6 × 10^4 CFU/ml
0.125 Ole/ml, t 60 min, initial cell load 9.9 × 10^4 CFU/ml
  Number of CFUs: 1.1 × 10^4 CFU/ml
0.125 Ole/ml, t 24 h, initial cell load 9.9 × 10^4 CFU/ml
  Number of CFUs: 5.4 × 10^3 CFU/ml
0.125 Ole/ml, t 48 h, initial cell load 9.9 × 10^4 CFU/ml
  Number of CFUs: <100 CFU/ml
0.125 Ole/ml, t 72 h, initial cell load 9.9 × 10^4 CFU/ml
  Number of CFUs: <100 CFU/ml
0.25 Ole/ml, t 0 min, initial cell load 9.9 × 10^4 CFU/ml
  Number of CFUs: 1.7 × 10^4 CFU/ml
0.25 Ole/ml, t 12 min, initial cell load 9.9 × 10^4 CFU/ml
  Number of CFUs: 1.8 × 10^4 CFU/ml
0.25 Ole/ml, t 30 min, initial cell load 9.9 × 10^4 CFU/ml
  Number of CFUs: 2.0 × 10^4 CFU/ml
0.25 Ole/ml, t 60 min, initial cell load 9.9 × 10^4 CFU/ml
  Number of CFUs: 1.6 × 10^4 CFU/ml
0.25 Ole/ml, t 24 h, initial cell load 9.9 × 10^4 CFU/ml
  Number of CFUs: 7.2 × 10^3 CFU/ml
0.25 Ole/ml, t 48 h, initial cell load 9.9 × 10^4 CFU/ml
  Number of CFUs: 8.3 × 10^3 CFU/ml
0.25 Ole/ml, t 72 h, initial cell load 9.9 × 10^4 CFU/ml
  Number of CFUs: <100 CFU/ml
0.5 Ole/ml, t 0 min, initial cell load 9.9 × 10^4 CFU/ml
  Number of CFUs: 8.3 × 10^3 CFU/ml
0.5 Ole/ml, t 12 min, initial cell load 9.9 × 10^4 CFU/ml
  Number of CFUs: 6.1 × 10^3 CFU/ml
0.5 Ole/ml, t 30 min, initial cell load 9.9 × 10^4 CFU/ml
  Number of CFUs: 5.1 × 10^3 CFU/ml
0.5 Ole/ml, t 60 min, initial cell load 9.9 × 10^4 CFU/ml
  Number of CFUs: 2.4 × 10^3 CFU/ml
0.5 Ole/ml, t 24 h, initial cell load 9.9 × 10^4 CFU/ml
  Number of CFUs: <100 CFU/ml
0.5 Ole/ml, t 48 h, initial cell load 9.9 × 10^4 CFU/ml
  Number of CFUs: <100 CFU/ml
0.5 Ole/ml, t 72 h, initial cell load 9.9 × 10^4 CFU/ml
  Number of CFUs: <100 CFU/ml
1.0 Ole/ml, t 0 min, initial cell load 9.9 × 10^4 CFU/ml
  Number of CFUs: <100 CFU/ml
1.0 Ole/ml, t 12 min, initial cell load 9.9 × 10^4 CFU/ml
  Number of CFUs: <100 CFU/ml
1.0 Ole/ml, t 30 min, initial cell load 9.9 × 10^4 CFU/ml
  Number of CFUs: <100 CFU/ml
1.0 Ole/ml, t 60 min, initial cell load 9.9 × 10^4 CFU/ml
  Number of CFUs: <100 CFU/ml
1.0 Ole/ml, t 24 h, initial cell load 9.9 × 10^4 CFU/ml
  Number of CFUs: <100 CFU/ml
1.0 Ole/ml, t 48 h, initial cell load 9.9 × 10^4 CFU/ml
  Number of CFUs: <100 CFU/ml
1.0 Ole/ml, t 72 h, initial cell load 9.9 × 10^4 CFU/ml
  Number of CFUs: <100 CFU/ml
2.0 Ole/ml, t 0 min, initial cell load 9.9 × 10^4 CFU/ml
  Number of CFUs: <100 CFU/ml
2.0 Ole/ml, t 12 min, initial cell load 9.9 × 10^4 CFU/ml
  Number of CFUs: <100 CFU/ml
2.0 Ole/ml, t 30 min, initial cell load 9.9 × 10^4 CFU/ml
  Number of CFUs: <100 CFU/ml
2.0 Ole/ml, t 60 min, initial cell load 9.9 × 10^4 CFU/ml
  Number of CFUs: <100 CFU/ml
2.0 Ole/ml, t 24 h, initial cell load 9.9 × 10^4 CFU/ml
  Number of CFUs: <100 CFU/ml
2.0 Ole/ml, t 48 h, initial cell load 9.9 × 10^4 CFU/ml
  Number of CFUs: <100 CFU/ml
2.0 Ole/ml, t 72 h, initial cell load 9.9 × 10^4 CFU/ml
  Number of CFUs: <100 CFU/ml
Detection limit of the assay 100 CFU/ml
  antimicrobial effect, summary in words: immediate effect at the higher concentrations

Reference: patent publication US20220395549A1, “COMPOSITIONS OF THE OLEA EUROPAEA V. SYLVESTRIS WITH ANTIMICROBIAL EFFICACY” (TAPROGGE GMBH, priority 2019, published 2022)
